In patent US20060166894A1, “Ace-inhibitors having antioxidant and no-donor activity” (Yissum Research Development Company of the Hebrew …, priority 2002, published 2006):

Target: T1, recombinant human somatic ACE (Homo sapiens, UniProt P12821)
T1 construct: purchased R&D Systems
Assay: ACE activity, cleavage of fluorogenic peptide substrate
Format: biochemical
Details: fluorogenic substrate 10 μM, 50 mM sodium borate buffer pH 8.2, 37° C.
Description: Angiotensin converting enzyme (ACE) is a dipeptidyl carboxypeptidase that releases the C-terminal dipeptide His-Leu from decapeptide angiotensin I, converting it to the vasoconstrictor angiotensin II (Ang II). The assay for ACE activity will measure the cleavage of a fluorogenic peptide substrate, (7-methoxycoumarin-4-yl)acetyl-Arg-Pro-Pro-Gly-Phe-Ser-Ala-Phe-Lys(2,4 dinitrophenyl; R&D Systems). This peptide substrate contains a fluorescent 7-methoxycoumarin group that is internally quenched by resonance energy transfer to the 2,4-dinitrophenyl group. ACE cleaves the peptide between the Ala-Phe (between the fluorescent group and the quencher group), resulting in an increase in fluorescence. The assay is carried out in a 96-well plate. […] Fluorescence changes (relative fluorescence units/min, RFU/min) are measured using a fmax fluorescence microplate reader (Molecular Devices with SoftmaxPro software) at 37° C. with excitation and emission wavelengths of 320 nm and 405 nm, respectively. A background rate determined for samples containing no ACE is subtracted from all reactions to calculate the initial rates in RFU/min. […]
The ACE activity of the compound N-{2-([1,2]dithiolan-3-yl)-propionyl}-pyrrolidine-2-carboxylic acid was measured as described above.

T1 sequence (P12821 30-1306): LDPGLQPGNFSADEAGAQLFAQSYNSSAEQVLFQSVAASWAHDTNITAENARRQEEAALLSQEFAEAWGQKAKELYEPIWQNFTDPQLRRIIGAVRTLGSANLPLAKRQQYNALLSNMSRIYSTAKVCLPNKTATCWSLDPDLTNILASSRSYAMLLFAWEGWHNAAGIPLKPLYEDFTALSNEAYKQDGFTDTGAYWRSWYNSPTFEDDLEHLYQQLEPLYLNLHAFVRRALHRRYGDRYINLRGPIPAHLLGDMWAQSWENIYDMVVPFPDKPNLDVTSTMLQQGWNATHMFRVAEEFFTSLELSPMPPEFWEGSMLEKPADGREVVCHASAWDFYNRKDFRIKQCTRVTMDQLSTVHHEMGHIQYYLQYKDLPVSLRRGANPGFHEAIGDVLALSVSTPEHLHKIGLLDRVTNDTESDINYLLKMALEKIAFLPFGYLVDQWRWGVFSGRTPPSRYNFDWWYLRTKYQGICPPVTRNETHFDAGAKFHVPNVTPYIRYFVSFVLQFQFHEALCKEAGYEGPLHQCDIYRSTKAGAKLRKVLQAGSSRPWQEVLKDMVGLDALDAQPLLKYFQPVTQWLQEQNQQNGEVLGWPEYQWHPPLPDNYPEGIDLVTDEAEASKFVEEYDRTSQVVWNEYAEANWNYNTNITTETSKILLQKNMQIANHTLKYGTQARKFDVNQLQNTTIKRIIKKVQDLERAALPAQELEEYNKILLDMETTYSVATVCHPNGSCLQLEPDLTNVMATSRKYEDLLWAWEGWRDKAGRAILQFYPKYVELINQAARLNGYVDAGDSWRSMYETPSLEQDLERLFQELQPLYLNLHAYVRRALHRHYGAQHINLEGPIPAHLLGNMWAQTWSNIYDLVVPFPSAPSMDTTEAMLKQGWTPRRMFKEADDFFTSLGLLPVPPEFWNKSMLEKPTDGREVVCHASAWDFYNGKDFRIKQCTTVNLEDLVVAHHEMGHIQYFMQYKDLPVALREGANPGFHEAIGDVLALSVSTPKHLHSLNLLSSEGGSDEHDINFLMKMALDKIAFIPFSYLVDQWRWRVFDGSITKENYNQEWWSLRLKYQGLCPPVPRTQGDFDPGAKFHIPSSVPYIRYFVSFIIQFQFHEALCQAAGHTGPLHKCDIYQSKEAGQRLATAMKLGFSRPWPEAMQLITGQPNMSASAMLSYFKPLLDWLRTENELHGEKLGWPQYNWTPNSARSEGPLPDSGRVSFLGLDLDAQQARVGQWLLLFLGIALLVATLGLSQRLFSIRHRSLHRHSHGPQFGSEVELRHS

Question: For CC(C(=O)N1CCCC1C(=O)O)C1CCSS1 (stereo not shown) [N-{2-([1,2]Dithiolan-3-yl)-propionyl}-pyrrolidine-2-carboxylic acid], which IC50 is on record?
Answer: The IC50 was 64 µM.
